Assay [1] has as its system Aβ40. In words: Aβ40 content in culture supernatant of HEK293APP/sw overexpression cells (ELISA, adjusted to total protein). The conditions noted are these: secreted by APP/293 (HEK293APP/sw) cells; 400 μM, treated for 24 h; blank control 127.81. The class given is cell-based. As to the method: (§1) (1) BCA protein concentration assay kit is purchased from Beyotime, Aβ40 and AB42 test kits are purchased from Wako Company. Except the fetal bovine serum (FBS) is purchased from Shanghai Pulong Biotechnology Research and Development Co. Ltd., the other related reagents are purchased from Gibico Company.
(§2) (2) HEK293APP/sw overexpression cell culture: cells are cultured in 48 microwell plate with DMEM culture solution (including 10% FBS, 100 μg/mL G418 (Geneticin) and penicillin and streptomycin), and a 4 mM stock in DMEM is diluted with DMEM to 400 μM and added to cell culture medium by 500 μL/well at 70% cell density and treated for 24 h.
(§3) (3) After the supernatant of culture solution is added to the BCA reagent at room temperature for 30 minutes, the absorption value of each well is measured at the OD 570 nm by the microplate reader and the total protein concentration is calculated according to the protein standard curve. Meanwhile, the concentration of Aβ40 and Aβ42 in the supernatant of culture solution is measured. Briefly, the supernatant is added to the 96 microwell plate coated by primary antibodies and incubated at 4° C. for overnight. Then the solution in the 96 microwell plate is removed and washed, and HRP (horseradish oxide enzyme) marked antibody is added to the solution and incubated at 4° C. for 2 hours. The antibody is removed and the plate is washed. After TMB substrate is added to each well at room temperature for 30 minutes, and the stop buffer is added to each well. The absorption value of each well is measured at the OD 450 nm by the microplate reader and the concentrations of Aβ40 and Aβ42 are calculated according to the standard curves of Aβ40 and Aβ42 respectively, and the final concentration is obtained by adjusting the concentrations of Aβ40 and Aβ42 according to the total protein concentration.

The subject of assay [2] is Aβ42. In words: Aβ42 content in culture supernatant of HEK293APP/sw overexpression cells (ELISA, adjusted to total protein). The class given is cell-based. The conditions noted are these: secreted by APP/293 (HEK293APP/sw) cells; 400 μM, treated for 24 h; blank control 11.08. As to the method:
as §1, §2, §3
Background: An ELISA detects its analyte on a solid surface through an enzyme-linked reagent.

In assay [1], `C/C(=C(\CCOP(=O)(O)O)SC(=O)c1c(C)cccc1C)N(C=O)Cc1cnc(C)nc1N` [Example 23, (Z)-S-(2-(N-((4-amino-2-methylpyrimidin-5-yl)methyl)formamido)-5-(phosphonooxy)pent-2-en-3-yl)2,6-dimethylbenzothioate] registered an Aβ40 content of 143.18 pmol/L. The compound further gave an Aβ42 content in assay [2] of 12.64 pmol/L.
In assay [1], “(Z)-S-(2-(N-((4-amino-2-methylpyrimidin-5-yl)methyl)formamido)-5-(phosphonooxy)pent-2-en-3-yl)2-bromobenzothioate [Example 18]” returned an Aβ40 content of 21.19 pmol/L. Also, the Aβ42 content in assay [2] is on record as 2.60 pmol/L.
`C/C(=C(\CCOP(=O)(O)O)SC(=O)c1c(F)cccc1F)N(C=O)Cc1cnc(C)nc1N` [Example 4, (Z)-S-(2-(N-((4-amino-2-methylpyrimidin-5-yl)methyl)formamido)-5-(phosphonooxy)pent-2-en-3-yl)2,6-difluorobenzothioate] gave an Aβ40 content in assay [1] of 133.25 pmol/L. Further, in assay [2], the Aβ42 content was found to be 8.86 pmol/L.
For `C/C(=C(\CCOP(=O)(O)O)SC(=O)c1ccccc1C)N(C=O)Cc1cnc(C)nc1N` [Example 10, (Z)-S-(2-(N-((4-amino-2-methylpyrimidin-5-yl)methyl)formamido)-5-(phosphonooxy)pent-2-en-3-yl)2-methylbenzothioate], in that order: 112.32 pmol/L and 9.78 pmol/L.
`C/C(=C(\CCOP(=O)(O)O)SC(=O)c1cccc(Cl)c1)N(C=O)Cc1cnc(C)nc1N` [Example 13, (Z)-S-(2-(N-((4-amino-2-methylpyrimidin-5-yl)methyl)formamido)-5-(phosphonooxy)pent-2-en-3-yl)3-chlorobenzothioate] showed an Aβ40 content in assay [1] of 69.35 pmol/L. Further, the Aβ42 content in assay [2] is 6.37 pmol/L.

The record behind these values is US11820787B2, “Benfotiamine derivatives in the treatment of alzheimer's disease” (SHANGHAI RAISING PHARMACEUTICAL CO., LTD., priority 2019, dated 2023).
